These results are taken from patent US7723328B2, “Methods of facilitating cell survival using neurotrophin mimetics” (The University of North Carolina at Chapel Hill, priority 2005, dated 2010).

This assay concerns E17 hippocampal neurons. The assay can be described thus: Aβ-induced death of hippocampal neurons. The assay is classed as cell-based. The method, then: Using previously well established protocols, Aβ was preincubated for 3 days in water to allow formation of oligomers. E17 hippocampal neurons were incubated for 5 days to allow for maturation prior to addition of Aβ with test compounds.

On to “Aβ1-42: amyloid-β, preincubated for 3 days in water to allow formation of oligomers [reference compound]”, for which the loss of neurons (Aβ1-42 10 μM or 30 μM, 3 day exposure, no compound) was ~40%.

`Cn1c(=O)c2c(ncn2CC(=O)NCc2ccco2)n(C)c1=O` [Compound 6]: where the note is “Aβ1-42 10 μM, NGF at 100 pg/ml”, the “protection against Aβ1-42-induced death” value was “failed to block”.
